In ChEMBL document CHEMBL1909528, “Synthesis and 2D QSAR of O-sulphonated β-aminols derivatives as novel antifungal and antibacterial agents” (Bioorg Med Chem Lett, 2011):

Legend:
Aspergillus fumigatus = assay: Antifungal activity against Aspergillus fumigatus by broth microdilution method; type: functional
Cryptococcus neoformans = assay: Antifungal activity against Cryptococcus neoformans by broth microdilution method; type: functional
[1] = test system: Trichophyton mentagrophytes; assay: Antifungal activity against Trichophyton mentagrophytes by broth microdilution method; type: functional, organism-based
Candida parapsilosis = assay: Antifungal activity against Candida parapsilosis ATCC 22019 by broth microdilution method; type: functional; details: Lodderomyces parapsilosis
Staphylococcus aureus = assay: Antibacterial activity against Staphylococcus aureus ATCC 25923 by broth microdilution method; type: functional, organism-based
Sporothrix schenckii = assay: Antifungal activity against Sporothrix schenckii by broth microdilution method; type: functional, organism-based
Candida albicans = assay: Antifungal activity against Candida albicans by broth microdilution method; type: functional, organism-based

COc1ccc(C(CN(Cc2ccccc2)C(=O)OC(C)(C)C)OS(=O)(=O)c2ccc(F)cc2)cc1 (stereo unspecified)
MIC (Aspergillus fumigatus): > 50 µM
MIC (Cryptococcus neoformans): > 50 µM
MIC [1]: < 50 µM
IC50 ([1]; read-out: IC50): 22.8 µM
IC50 ([1]; read-out: pIC50 (converted)): 22.9 µM
MIC (Candida parapsilosis): > 50 µM

CC(C)(C)OC(=O)N(Cc1ccc(F)cc1)CC(OS(=O)(=O)c1cccc([N+](=O)[O-])c1)c1ccccc1 (stereo unspecified)
MIC (Staphylococcus aureus): < 50 µM
IC50 (Staphylococcus aureus; read-out: IC50): 39.9 µM
IC50 (Staphylococcus aureus; read-out: pIC50 (converted)): 39.8 µM
MIC (Aspergillus fumigatus): > 50 µM
MIC (Cryptococcus neoformans): > 50 µM
MIC (Candida parapsilosis): > 50 µM

COc1ccc(C(CN(Cc2ccccc2)C(=O)OC(C)(C)C)OS(=O)(=O)c2cccc(Cl)c2Cl)cc1 (stereo unspecified)
MIC (Aspergillus fumigatus): > 50 µM
MIC (Cryptococcus neoformans): > 50 µM
MIC [1]: < 50 µM
IC50 ([1]; read-out: IC50): 14.9 µM
IC50 ([1]; read-out: pIC50 (converted)): 14.9 µM
MIC (Candida parapsilosis): > 50 µM
MIC (Sporothrix schenckii): < 50 µM
IC50 (Sporothrix schenckii; read-out: IC50): 13.4 µM
IC50 (Sporothrix schenckii; read-out: pIC50 (converted)): 13.4 µM

Cc1cc(C)cc(S(=O)(=O)OC(CN(Cc2ccccc2)C(=O)OC(C)(C)C)c2ccccc2)c1 (stereo unspecified)
MIC (Aspergillus fumigatus): > 50 µM
MIC (Candida albicans): < 50 µM
IC50 (Candida albicans; read-out: IC50): 41.6 µM
IC50 (Candida albicans; read-out: pIC50 (converted)): 41.6 µM
MIC (Cryptococcus neoformans): > 50 µM
MIC [1]: < 50 µM
IC50 ([1]; read-out: IC50): 12.6 µM
IC50 ([1]; read-out: pIC50 (converted)): 12.6 µM
MIC (Candida parapsilosis): > 50 µM
MIC (Sporothrix schenckii): < 50 µM
IC50 (Sporothrix schenckii; read-out: IC50): 31.2 µM
IC50 (Sporothrix schenckii; read-out: pIC50 (converted)): 31.2 µM

Cc1ccc(C(CN(Cc2ccccc2)C(=O)OC(C)(C)C)OS(=O)(=O)c2c(Cl)cccc2Cl)cc1 (stereo unspecified)
MIC (Aspergillus fumigatus): > 50 µM
MIC (Cryptococcus neoformans): > 50 µM
MIC [1]: < 50 µM
IC50 ([1]; read-out: IC50): 4.39 µM
IC50 ([1]; read-out: pIC50 (converted)): 4.4 µM
MIC (Candida parapsilosis): > 50 µM

CC(C)(C)OC(=O)N(Cc1ccc(F)cc1)CC(OS(=O)(=O)c1ccc(F)cc1)c1ccccc1 (stereo unspecified)
MIC (Staphylococcus aureus): < 50 µM
IC50 (Staphylococcus aureus; read-out: IC50): 22.6 µM
IC50 (Staphylococcus aureus; read-out: pIC50 (converted)): 22.6 µM
MIC (Aspergillus fumigatus): > 50 µM
MIC (Cryptococcus neoformans): > 50 µM
MIC (Candida parapsilosis): > 50 µM

CC(C)c1cc(C(C)C)c(S(=O)(=O)OC(CN(Cc2ccccc2)C(=O)OC(C)(C)C)c2ccccc2)c(C(C)C)c1 (stereo unspecified)
MIC (Aspergillus fumigatus): > 50 µM
MIC (Candida albicans): < 50 µM
IC50 (Candida albicans; read-out: IC50): 12.5 µM
IC50 (Candida albicans; read-out: pIC50 (converted)): 12.5 µM
MIC (Cryptococcus neoformans): > 50 µM
MIC [1]: < 50 µM
IC50 ([1]; read-out: IC50): 6.11 µM
IC50 ([1]; read-out: pIC50 (converted)): 6.11 µM
MIC (Candida parapsilosis): > 50 µM
MIC (Sporothrix schenckii): < 50 µM
IC50 (Sporothrix schenckii; read-out: IC50): 46.4 µM
IC50 (Sporothrix schenckii; read-out: pIC50 (converted)): 46.4 µM

CC(C)(C)OC(=O)N(Cc1ccccc1)CC(OS(=O)(=O)c1ccccc1C(F)(F)F)c1ccccc1 (stereo unspecified)
MIC (Aspergillus fumigatus): > 50 µM
MIC (Candida albicans): < 50 µM
IC50 (Candida albicans; read-out: IC50): 6.44 µM
IC50 (Candida albicans; read-out: pIC50 (converted)): 6.44 µM
MIC (Cryptococcus neoformans): > 50 µM
MIC [1]: < 50 µM
IC50 ([1]; read-out: IC50): 24.4 µM
IC50 ([1]; read-out: pIC50 (converted)): 24.4 µM
MIC (Candida parapsilosis): > 50 µM
MIC (Sporothrix schenckii): < 50 µM
IC50 (Sporothrix schenckii; read-out: IC50): 28.4 µM
IC50 (Sporothrix schenckii; read-out: pIC50 (converted)): 28.4 µM

O=[N+]([O-])c1cccc(S(=O)(=O)OC(CNCc2ccccc2)c2ccccc2)c1 (stereo unspecified)
MIC (Staphylococcus aureus): < 50 µM
IC50 (Staphylococcus aureus; read-out: IC50): 0.842 µM
IC50 (Staphylococcus aureus; read-out: pIC50 (converted)): 1.19 µM
MIC (Aspergillus fumigatus): > 50 µM
MIC (Candida albicans): < 50 µM
IC50 (Candida albicans; read-out: IC50): 30.8 µM
IC50 (Candida albicans; read-out: pIC50 (converted)): 30.8 µM
MIC (Cryptococcus neoformans): > 50 µM
MIC (Candida parapsilosis): > 50 µM

O=S(=O)(OC(CNCc1ccccc1)c1ccccc1)c1ccc(F)cc1 (stereo unspecified)
MIC (Staphylococcus aureus): < 50 µM
IC50 (Staphylococcus aureus; read-out: IC50): 22.6 µM
IC50 (Staphylococcus aureus; read-out: pIC50 (converted)): 22.6 µM
MIC (Aspergillus fumigatus): > 50 µM
MIC (Candida albicans): < 50 µM
IC50 (Candida albicans; read-out: IC50): 41.9 µM
IC50 (Candida albicans; read-out: pIC50 (converted)): 41.9 µM
MIC (Cryptococcus neoformans): > 50 µM
MIC [1]: < 50 µM
IC50 ([1]; read-out: IC50): 10.2 µM
IC50 ([1]; read-out: pIC50 (converted)): 10.2 µM
MIC (Candida parapsilosis): > 50 µM

COc1ccc(CN(CC(OS(=O)(=O)c2cccc([N+](=O)[O-])c2)c2ccccc2)C(=O)OC(C)(C)C)cc1 (stereo unspecified)
MIC (Aspergillus fumigatus): > 50 µM
MIC (Cryptococcus neoformans): > 50 µM
MIC [1]: < 50 µM
IC50 ([1]; read-out: IC50): 2.24 µM
IC50 ([1]; read-out: pIC50 (converted)): 2.24 µM
MIC (Candida parapsilosis): > 50 µM
MIC (Sporothrix schenckii): < 50 µM
IC50 (Sporothrix schenckii; read-out: IC50): 6.24 µM
IC50 (Sporothrix schenckii; read-out: pIC50 (converted)): 6.24 µM

Cc1ccc(C(CN(Cc2ccccc2)C(=O)OC(C)(C)C)OS(=O)(=O)c2cccc(Cl)c2Cl)cc1 (stereo unspecified)
MIC (Aspergillus fumigatus): > 50 µM
MIC (Cryptococcus neoformans): > 50 µM
MIC (Candida parapsilosis): > 50 µM
MIC (Sporothrix schenckii): < 50 µM
IC50 (Sporothrix schenckii; read-out: IC50): 10.7 µM
IC50 (Sporothrix schenckii; read-out: pIC50 (converted)): 10.7 µM

CC(C)(C)OC(=O)N(Cc1ccc(F)cc1)CC(OS(=O)(=O)c1cccc(Cl)c1Cl)c1ccccc1 (stereo unspecified)
MIC (Staphylococcus aureus): < 50 µM
IC50 (Staphylococcus aureus; read-out: IC50): 14.7 µM
IC50 (Staphylococcus aureus; read-out: pIC50 (converted)): 14.7 µM
MIC (Aspergillus fumigatus): > 50 µM
MIC (Cryptococcus neoformans): > 50 µM
MIC [1]: < 50 µM
IC50 ([1]; read-out: IC50): 0.53 µM
MIC (Candida parapsilosis): > 50 µM
MIC (Sporothrix schenckii): < 50 µM
IC50 (Sporothrix schenckii; read-out: IC50): 7.46 µM
IC50 (Sporothrix schenckii; read-out: pIC50 (converted)): 7.46 µM

O=S(=O)(OC(CNCc1ccccc1)c1ccccc1)c1cccc(Cl)c1Cl (stereo unspecified)
MIC (Aspergillus fumigatus): > 50 µM
MIC (Cryptococcus neoformans): > 50 µM
MIC [1]: < 50 µM
IC50 ([1]; read-out: IC50): 5.89 µM
IC50 ([1]; read-out: pIC50 (converted)): 5.89 µM
MIC (Candida parapsilosis): > 50 µM
MIC (Sporothrix schenckii): < 50 µM
IC50 (Sporothrix schenckii; read-out: IC50): 15.6 µM
IC50 (Sporothrix schenckii; read-out: pIC50 (converted)): 15.6 µM

CC(C)(C)OC(=O)N(Cc1ccccc1)CC(OS(=O)(=O)c1cccc(Cl)c1Cl)c1ccccc1 (stereo unspecified)
MIC (Aspergillus fumigatus): > 50 µM
MIC (Cryptococcus neoformans): > 50 µM
MIC [1]: < 50 µM
IC50 ([1]; read-out: IC50): 0.33 µM
MIC (Candida parapsilosis): > 50 µM
MIC (Sporothrix schenckii): < 50 µM
IC50 (Sporothrix schenckii; read-out: IC50): 26.7 µM
IC50 (Sporothrix schenckii; read-out: pIC50 (converted)): 26.7 µM

CC(C)(C)OC(=O)N(Cc1ccc(Cl)c(Cl)c1)CC(OS(=O)(=O)c1cccc([N+](=O)[O-])c1)c1ccccc1 (stereo unspecified)
MIC (Aspergillus fumigatus): > 50 µM
MIC (Cryptococcus neoformans): > 50 µM
MIC (Candida parapsilosis): > 50 µM
MIC (Sporothrix schenckii): < 50 µM
IC50 (Sporothrix schenckii; read-out: IC50): 24.4 µM
IC50 (Sporothrix schenckii; read-out: pIC50 (converted)): 24.4 µM

COc1ccc(C(CN(Cc2ccccc2)C(=O)OC(C)(C)C)OS(=O)(=O)c2c(Cl)cccc2Cl)cc1 (stereo unspecified)
MIC (Aspergillus fumigatus): > 50 µM
MIC (Cryptococcus neoformans): > 50 µM
MIC [1]: < 50 µM
IC50 ([1]; read-out: IC50): 13.5 µM
IC50 ([1]; read-out: pIC50 (converted)): 13.6 µM
MIC (Candida parapsilosis): > 50 µM

CC(C)(C)OC(=O)N(Cc1ccccc1)CC(OS(=O)(=O)c1cccc([N+](=O)[O-])c1)c1ccccc1 (stereo unspecified)
MIC (Aspergillus fumigatus): > 50 µM
MIC (Cryptococcus neoformans): > 50 µM
MIC (Candida parapsilosis): > 50 µM
MIC (Sporothrix schenckii): < 50 µM
IC50 (Sporothrix schenckii; read-out: IC50): 5.95 µM
IC50 (Sporothrix schenckii; read-out: pIC50 (converted)): 5.95 µM

CC(C)(C)OC(=O)N(Cc1ccc(Cl)c(Cl)c1)CC(OS(=O)(=O)c1cccc(Cl)c1Cl)c1ccccc1 (stereo unspecified)
MIC (Aspergillus fumigatus): > 50 µM
MIC (Cryptococcus neoformans): > 50 µM
MIC (Candida parapsilosis): > 50 µM
MIC (Sporothrix schenckii): < 50 µM
IC50 (Sporothrix schenckii; read-out: IC50): 23.3 µM
IC50 (Sporothrix schenckii; read-out: pIC50 (converted)): 23.3 µM

CC(C)(C)OC(=O)N(Cc1ccc(F)cc1)CC(OS(=O)(=O)c1c(Cl)cccc1Cl)c1ccccc1 (stereo unspecified)
MIC (Staphylococcus aureus): < 50 µM
IC50 (Staphylococcus aureus; read-out: IC50): 12.5 µM
IC50 (Staphylococcus aureus; read-out: pIC50 (converted)): 12.5 µM
MIC (Aspergillus fumigatus): > 50 µM
MIC (Cryptococcus neoformans): > 50 µM
MIC (Candida parapsilosis): > 50 µM

CC(C)(C)OC(=O)N(Cc1ccc(Cl)c(Cl)c1)CC(OS(=O)(=O)c1ccc(F)cc1)c1ccccc1 (stereo unspecified)
MIC (Staphylococcus aureus): < 50 µM
IC50 (Staphylococcus aureus; read-out: IC50): 15.3 µM
IC50 (Staphylococcus aureus; read-out: pIC50 (converted)): 15.3 µM
MIC (Aspergillus fumigatus): > 50 µM
MIC (Cryptococcus neoformans): > 50 µM
MIC (Candida parapsilosis): > 50 µM
MIC (Sporothrix schenckii): < 50 µM
IC50 (Sporothrix schenckii; read-out: IC50): 43.3 µM
IC50 (Sporothrix schenckii; read-out: pIC50 (converted)): 43.3 µM

COc1ccc(CN(CC(OS(=O)(=O)c2ccc(F)cc2)c2ccccc2)C(=O)OC(C)(C)C)cc1 (stereo unspecified)
MIC (Aspergillus fumigatus): > 50 µM
MIC (Cryptococcus neoformans): > 50 µM
MIC [1]: < 50 µM
IC50 ([1]; read-out: IC50): 2.76 µM
IC50 ([1]; read-out: pIC50 (converted)): 2.76 µM
MIC (Candida parapsilosis): > 50 µM
MIC (Sporothrix schenckii): < 50 µM
IC50 (Sporothrix schenckii; read-out: IC50): 23.2 µM
IC50 (Sporothrix schenckii; read-out: pIC50 (converted)): 23.1 µM

O=S(=O)(OC(CNCc1ccccc1)c1ccccc1)c1c(Cl)cccc1Cl (stereo unspecified)
MIC (Staphylococcus aureus): < 50 µM
IC50 (Staphylococcus aureus; read-out: IC50): 11.6 µM
IC50 (Staphylococcus aureus; read-out: pIC50 (converted)): 11.6 µM
MIC (Aspergillus fumigatus): > 50 µM
MIC (Candida albicans): < 50 µM
IC50 (Candida albicans; read-out: IC50): 18 µM
IC50 (Candida albicans; read-out: pIC50 (converted)): 18 µM
MIC (Cryptococcus neoformans): > 50 µM
MIC [1]: < 50 µM
IC50 ([1]; read-out: IC50): 44.7 µM
IC50 ([1]; read-out: pIC50 (converted)): 44.8 µM
MIC (Candida parapsilosis): > 50 µM
MIC (Sporothrix schenckii): < 50 µM
IC50 (Sporothrix schenckii; read-out: IC50): 12 µM
IC50 (Sporothrix schenckii; read-out: pIC50 (converted)): 12 µM
